Test system: A549 cells
Assay: Toxicity test with Cellomics Array Scan
Assay type: cell-based, human
Protocol: The toxicity of the zwitterionic QDQRs-17a and QDQRs-17b was tested using the Cellomics Array Scan. For the toxicity tests, A549 cells were plated on a 96-well plate and incubated with QDQR solutions in a concentration range of 25 to 500 nM. Cadmium chloride, which was used in a concentration range from 25 to 1,000 μM, was used as the positive control. The increase in the cadmium chloride concentration by a factor of 1,000 is due to the fact that a single QDQR of the tested samples contains about 8,200 cadmium atoms. Assuming that the totality of the nanoparticles dissolve and release the cadmium contained in them, the lowest concentration of 25 nM QDQRs used would correspond to a concentration of 205 μM cadmium chloride. After an incubation period of 16 hours, the cells were blended with a staining solution consisting of the cell nucleus dye Hoechst 33342 and the mitochondrial dye MitoTracker® Deep Red FM and then fixed with formaldehyde solution. The 96-well plates were then read out with the Cellomics Array Scan. A software was used to automatically determine the parameters number of cells, cell nucleus intensity and cell nucleus size using the intensity of the dye by Hoechst, and the transmembrane potential of the mitochondria on the basis of the mitochondrial dye. In addition, microscopic images of the cells were taken to control the number of cells and cell morphology.
For the toxicity tests, A549 cells were plated in culture medium on a 96-well plate (10,000 cells per well) and incubated overnight. When the medium had been sucked off, the samples to be tested (diluted with culture medium, 100 μL per well) were applied in different concentrations and incubated for 16 hours. The samples were then removed and the cells were mixed with 100 μL staining solution (final concentration: 75 nM MitoTracker® Deep Red and […] Hoechst 33342 in DMEM with 10% FCS) and incubated for a further 30 minutes. […] After 20 minutes, the fixing solution was sucked off and washed twice with DPBS before the samples were measured on the Cellomics Array Scan.

## [Cl][Cd][Cl] [cadmium chloride]
16 hours incubation
  morphological changes of the cells or cell nuclei (microscopic images): the number of cells decreases noticeably and they get globular
16 hours incubation, tested 25 to 1,000 μM
  concentration with toxic effect on the cells: ≥ 100 µM
16 hours, 100 μM or more
  number of cells per well, cell nucleus intensity and cell nucleus size: decreases significantly

Source: US12019075B2, “Zwitterionic nanoparticles” (FRAUNHOFER-GESELLSCHAFT ZUR FOERDERUNG DER ANGEWANDTEN …, priority 2017, dated 2024)
